Patent US20060183901A1, “Crystalline form of an indazole-carboxamide compound” (THERAVANCE, INC., priority 2005, published 2006)

Key:
[1] = target: T1, human 5-HT4(c) receptor (Homo sapiens, UniProt Q13639); assay: Radioligand binding assay on 5-HT4(c) human receptors; design: expressed in transfected cells
Procedure: Assay 1: Radioligand Binding Assay on 5-HT4(c) Human Receptors a. Membrane Preparation 5-HT4(c)
Cells were grown under continuous selection pressure by the addition of 800 μg/mL geneticin (GIBCO-Invitrogen Corp.: Cat #10131) to the medium.
Cells were grown to roughly 60-80% confluency (<35 subculture passages). At 20-22 hours prior to harvesting, cells were washed twice and fed with serum-free DMEM. […] The cell monolayer was lifted by gentle mechanical agitation and trituration with a 25 mL pipette.
For the membrane preparation, cell pellets were resuspended in ice-cold 50 mM 4-(2-hydroxyethyl)-1-piperazineethanesulphonic acid (HEPES), pH 7.4 (membrane preparation buffer) (40 mL/total cell yield from 30-40 T225 flasks) and homogenized using a polytron disrupter (setting 19, 2×10 s) on ice. The resultant homogenates were centrifuged at 1200 g for 5 min at 4° C. […] Protein concentration of the membrane suspension was determined by the method of Bradford (Bradford, 1976). […]
Non-specific binding was determined in the presence of 1 μM unlabeled GR113808.
Binding data were analyzed by nonlinear regression analysis with the GraphPad Prism Software package (GraphPad Software, Inc., San Diego, Calif.) using the 3-parameter model for one-site competition. […] Results are expressed as the negative decadic logarithm of the Ki values, pKi.

[2] = target: T1, human 5-HT4(c) receptor; assay: Whole-cell cAMP accumulation flashplate assay with HEK-293 cells expressing human 5-HT4(c) receptors; type: cell-based; design: expressed in transfected cells; host or cells: HEK-293
Procedure: The plates were sealed and incubated at 4° C. overnight.
Potency data are reported as pEC50 values, the negative decadic logarithm of the EC50 value, where EC50 is the effective concentration for a 50% maximal response.

[3] = target: T2, hERG cardiac potassium channel (Homo sapiens, UniProt Q12809); assay: In vitro voltage clamp assay of inhibition of potassium ion current in whole cells expressing hERG; type: cell-based; details: pH 7.4, 5 minutes exposure, CHO-K1 cells
T2 construct: host or cells: CHO-K1
T2 sequence (Q12809 whole entry): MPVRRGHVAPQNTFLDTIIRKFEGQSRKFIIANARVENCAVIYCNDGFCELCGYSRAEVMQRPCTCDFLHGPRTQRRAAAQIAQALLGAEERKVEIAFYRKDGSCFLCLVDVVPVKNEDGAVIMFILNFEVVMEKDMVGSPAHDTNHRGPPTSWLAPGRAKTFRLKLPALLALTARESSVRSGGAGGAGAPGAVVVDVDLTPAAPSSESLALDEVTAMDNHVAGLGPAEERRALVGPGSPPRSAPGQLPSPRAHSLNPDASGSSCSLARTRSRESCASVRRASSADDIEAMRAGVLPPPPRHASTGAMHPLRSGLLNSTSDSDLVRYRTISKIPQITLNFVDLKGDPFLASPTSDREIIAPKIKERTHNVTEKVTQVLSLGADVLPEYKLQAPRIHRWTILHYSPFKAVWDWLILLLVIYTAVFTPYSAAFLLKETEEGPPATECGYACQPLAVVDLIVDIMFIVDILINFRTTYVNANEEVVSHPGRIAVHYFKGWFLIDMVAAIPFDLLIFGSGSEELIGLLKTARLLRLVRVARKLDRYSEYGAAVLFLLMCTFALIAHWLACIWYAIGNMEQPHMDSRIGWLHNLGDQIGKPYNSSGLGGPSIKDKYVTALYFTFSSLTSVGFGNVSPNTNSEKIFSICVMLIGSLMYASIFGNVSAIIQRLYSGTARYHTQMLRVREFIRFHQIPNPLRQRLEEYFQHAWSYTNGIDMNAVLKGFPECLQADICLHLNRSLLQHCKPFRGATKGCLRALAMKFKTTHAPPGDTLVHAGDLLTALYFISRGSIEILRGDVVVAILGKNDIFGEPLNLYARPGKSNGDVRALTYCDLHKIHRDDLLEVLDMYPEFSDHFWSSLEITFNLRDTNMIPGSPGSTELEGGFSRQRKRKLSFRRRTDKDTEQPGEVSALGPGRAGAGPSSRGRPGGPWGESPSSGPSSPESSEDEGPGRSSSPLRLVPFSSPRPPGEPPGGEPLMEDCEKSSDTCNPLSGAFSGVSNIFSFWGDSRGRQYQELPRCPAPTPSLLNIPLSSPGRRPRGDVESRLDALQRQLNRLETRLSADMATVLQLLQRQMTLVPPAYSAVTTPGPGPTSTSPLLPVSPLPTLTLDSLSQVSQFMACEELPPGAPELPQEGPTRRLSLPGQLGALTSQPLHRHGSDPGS
Procedure: Assay 4: In Vitro Voltage Clamp Assay of Inhibition of Potassium Ion Current in Whole Cells Expressing the hERG Cardiac Potassium Channel
CHO-K1 cells stably transfected with hERG cDNA were obtained from Gail Robertson at the University of Wisconsin. Cells were held in cryogenic storage until needed. Cells were expanded and passaged in Dulbecco's Modified Eagles Medium/F 12 supplemented with 10% fetal bovine serum and 200 μg/mL geneticin. Cells were seeded onto poly-D-lysine (100 μg/mL) coated glass coverslips, in 35 mm^2 dishes (containing 2 mL medium) at a density that enabled isolated cells to be selected for whole cell voltage-clamp studies. The dishes were maintained in a humidified, 5% CO2 environment at 37° C.
Extracellular solution was prepared at least every 7 days and stored at 4° C. when not in use. […]
The coverslips on which the cells were seeded were transferred to a recording chamber and perfused continuously. […] Peak current amplitudes during the repolarization phase were determined using pClamp software. […]
Peak current amplitudes during the repolarization phase were determined using pCLAMP software. […] The normalized current means and standard errors for each condition were calculated and plotted versus the time course of the experiment. […]

T1 sequence (Q13639 1-380 isoform Q13639-4): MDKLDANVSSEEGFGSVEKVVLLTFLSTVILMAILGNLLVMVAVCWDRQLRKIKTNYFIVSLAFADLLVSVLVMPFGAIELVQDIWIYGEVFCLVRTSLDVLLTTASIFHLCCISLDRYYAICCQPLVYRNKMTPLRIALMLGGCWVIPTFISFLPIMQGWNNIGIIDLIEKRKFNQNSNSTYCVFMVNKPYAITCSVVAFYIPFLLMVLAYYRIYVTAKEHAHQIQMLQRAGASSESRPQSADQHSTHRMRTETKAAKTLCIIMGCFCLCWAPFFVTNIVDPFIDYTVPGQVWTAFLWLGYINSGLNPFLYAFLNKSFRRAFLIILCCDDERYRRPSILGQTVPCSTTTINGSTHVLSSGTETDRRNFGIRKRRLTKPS

**Q.** How did the Ki [1] turn out when `CC(=O)N1CCN(CCN2C3CCC2CC(NC(=O)c2nn(C(C)C)c4ccccc24)C3)CC1` [compound of formula I, 1-isopropyl-1H-indazole-3-carboxylic acid {(1S,3R,5R)-8-[2-(4-acetylpiperazin-1-yl)ethyl]-8-azabicyclo[3.2.1]oct-3-yl}amide] was run?
**A.** < 100 nM

**Q.** What about the EC50 [2] of the same molecule?
**A.** < 31.6 nM

**Q.** What about the inhibition at 5 min, 3 µM [3] of the same molecule?
**A.** < 15%
